Data taken from patent US7973069B2 (PTC Therapeutics, Inc., priority 2004, dated 2011).
“And” between values parts separate entries of the source, which are not always exact repeats. Equal entries are not always repeated.

system: HCV replicon; assay type: cell-based

First: CCCCOC(=O)Nc1ccc(-c2c(C#N)c3ccc(O)cc3n2CC)cc1 [Compound 1086]
Second: CCCn1c(-c2ccc(NC(=O)OCC)cc2)c(C#N)c2ccc(OCC)cc21 [Compound 1063]
The IC50 of the first is lower: less than 0.5 µM for the first, 0.5 to 2 µM for the second.

`CCNC(=O)Nc1ccc(-c2c(C#N)c3ccc(OC)cc3n2CC)cc1C` [Compound 966] and `CCCNC(=O)Nc1ccc(-c2c(C#N)c3ccc(OC)cc3n2CC)cc1C` [Compound 967] fall in the same range of IC50: 0.5 to 2 µM for the first, 0.5 to 2 µM for the second.

`CCn1c(-c2ccc(NC(=O)C3CC3)cc2)c(C#N)c2ccc(OCCn3cnnc3)cc21` [Compound 1092] and `CCn1c(-c2ccc(NC(=O)C3CC3)cc2)c(C#N)c2ccc(OCCn3cncn3)cc21` [Compound 1093] fall in the same range of IC50: 0.5 to 2 µM for the first, 0.5 to 2 µM for the second.

`CC(C)OC(=O)Nc1ccc(-c2c(C#N)c3ccc(OCCN(C)C)cc3n2C2CCC2)cc1` [Compound 1269] and `CCOc1ccc2c(C#N)c(-c3ccc(NC(=O)OC(C)C)cc3)n(C3CCC3)c2c1` [Compound 973] cannot be ordered by IC50: less than 0.5 µM for the first, less than 0.5 µM for the second.

Compared with `CCOc1ccc2c(C#N)c(-c3ccc(NP(=O)(OC)OC)cc3)n(CC)c2c1` [Compound 942], `CCOc1ccc2c(C#N)c(-c3ccc(NP(=O)(OC)OC)cc3)n(C3CCC3)c2c1` [Compound 937] is lower in IC50: 0.5 to 2 µM for the first, less than 0.5 µM for the second.

`CCCCNC(=O)Nc1ccc(-c2c(C#N)c3cc(OC)ccc3n2CCC)cc1` [Compound 1008] and `CCCNC(=O)Nc1ccc(-c2c(C#N)c3cc(OC)ccc3n2CC)cc1` [Compound 1010] fall in the same range of IC50: 0.5 to 2 µM for the first, 0.5 to 2 µM for the second.

Compared with `CCOc1ccc2c(C#N)c(-c3ccc(N)cc3)n(C3CC3)c2c1` [Compound 1245], `CCOc1ccc2c(C#N)c(-c3ccc(NC(=O)OC(C)C)cc3)n(C3CC3)c2c1` [Compound 1236] is lower in IC50: 0.5 to 2 µM for the first, less than 0.5 µM for the second. The second is the more potent here.

Compared with `CCn1c(-c2ccc(NS(=O)(=O)C(C)C)cc2)c(C#N)c2ccc(OCCF)cc21` [Compound 912], `CCn1c(-c2ccc(NC(=O)NC(C)C)cc2)c(C#N)c2ccc(OCCF)cc21` [Compound 956] is lower in IC50: 0.5 to 2 µM for the first, less than 0.5 µM for the second. The second is the more potent here.

`CCNC(=O)Nc1ccc(-c2c(C#N)c3ccc(OCC)cc3n2C2CCCC2)cc1` [Compound 1143] and `CCOC(=O)Nc1ccc(-c2c(C#N)c3ccc(OCC)cc3n2C2CCCC2)cc1` [Compound 1127] cannot be ordered by IC50: less than 0.5 µM for the first, less than 0.5 µM for the second.

First: CCn1c(-c2ccc(N3CCCS3(=O)=O)cc2)c(C#N)c2ccc(N)cc21 [Compound 1050]
Second: CCn1c(-c2ccc(N3CCCS3(=O)=O)cc2)c(C#N)c2ccc(C(F)(F)F)cc21 [Compound 969]
The IC50 of the first is higher: 0.5 to 2 µM for the first, less than 0.5 µM for the second.

`CCOc1ccc2c(C#N)c(-c3ccc(NC(=O)NC4CCC4)cc3)n(C3CCC3)c2c1` [Compound 1168] and `CCOc1ccc2c(C#N)c(-c3ccc(NC(=O)NC4CCCC4)cc3)n(C3CCCC3)c2c1` [Compound 1214] cannot be ordered by IC50: less than 0.5 µM for the first, less than 0.5 µM for the second.

`CCOc1ccc2c(C#N)c(-c3ccc(NC(=O)OC(C)CC)cc3)n(C3CCC3)c2c1` (centres unmarked) [Compound 1265] and `CCOc1ccc2c(C#N)c(-c3ccc(NC(=O)OC(C)COC)cc3)n(C3CCC3)c2c1` (centres unmarked) [Compound 1313] cannot be ordered by IC50: less than 0.5 µM for the first, less than 0.5 µM for the second.

`CCCOc1ccc2c(C#N)c(-c3ccc(NC(=O)OCC(C)(C)C)cc3)n(C(C)C)c2c1` [Compound 1207] and `CCCOC(=O)Nc1ccc(-c2c(C#N)c3ccc(OCCC)cc3n2C(C)C)cc1` [Compound 1203] cannot be ordered by IC50: less than 0.5 µM for the first, less than 0.5 µM for the second.

`CCOc1ccc2c(c1)c(C#N)c(-c1ccc(NC(=O)NC(C)C)cc1)n2C1CCC1` [Compound 1223] and `CCOc1ccc2c(c1)c(C#N)c(-c1ccc(NC(=O)OCC(C)(C)C)cc1)n2C1CCC1` [Compound 1200] cannot be ordered by IC50: less than 0.5 µM for the first, less than 0.5 µM for the second.

`CCOc1ccc2c(C#N)c(-c3ccc(NC(=O)OCc4ccccn4)cc3)n(C3CCC3)c2c1` [Compound 1264] and `CCOc1ccc2c(C#N)c(-c3ccc(NC(=O)OC(C)c4ccccc4)cc3)n(C3CCC3)c2c1` (centres unmarked) [Compound 1289] cannot be ordered by IC50: less than 0.5 µM for the first, less than 0.5 µM for the second.

`CCOc1ccc2c(C#N)c(-c3ccc(NC(=O)Cc4ccccc4)cc3)n(CC)c2c1` [Compound 900] and `CCOc1ccc2c(C#N)c(-c3ccc(NC(=O)CCc4ccccc4)cc3)n(CC)c2c1` [Compound 901] fall in the same range of IC50: 0.5 to 2 µM for the first, 0.5 to 2 µM for the second.

`CCn1c(-c2ccc(NC(=O)OCCCl)cc2)c(C#N)c2ccc(OCCCN3CCOCC3)cc21` [Compound 1114] and `CCn1c(-c2cccc(NC(=O)OCCCl)c2)c(C#N)c2ccc(OCCCN3CCOCC3)cc21` [Compound 1044] cannot be ordered by IC50: less than 0.5 µM for the first, less than 0.5 µM for the second.

`CC(C)OC(=O)Nc1ccc(-c2c(C#N)c3ccc(OCC4CCCO4)cc3n2C2CCC2)cc1` (centres unmarked) [Compound 1285] and `CC1(COC(=O)Nc2ccc(-c3c(C#N)c4ccc(OCC5CCCO5)cc4n3C3CCC3)cc2)CC1` (centres unmarked) [Compound 1284] cannot be ordered by IC50: less than 0.5 µM for the first, less than 0.5 µM for the second.

`C=CCNC(=O)Nc1ccc(-c2c(C#N)c3cc4c(cc3n2C2CCC2)OCO4)cc1` [Compound 1304] and `CCn1c(-c2ccc(NC(=O)NC(C)C)cc2)c(C#N)c2cc3c(cc21)OCO3` [Compound 1039] fall in the same range of IC50: 0.5 to 2 µM for the first, 0.5 to 2 µM for the second.

`CCCOc1ccc2c(C#N)c(-c3ccc(NC(=O)OCC4(C)CC4)cc3)n(C(C)C)c2c1` [Compound 1243] and `CCCOc1ccc2c(C#N)c(-c3ccc(NC(=O)OC4CCC4)cc3)n(C(C)C)c2c1` [Compound 1247] cannot be ordered by IC50: less than 0.5 µM for the first, less than 0.5 µM for the second.

`C[C@@H](OC(=O)Nc1ccc(-c2cc3ccc(Oc4ncccn4)cc3n2C2CCC2)cc1)C1CC1` [Compound 2341] and `CCOc1ccc2c(C#N)c(-c3ccc(NC(=O)O[C@H](C)C4CC4)cc3)n(C3CCC3)c2c1` [Compound 2174] cannot be ordered by IC50: less than 0.5 µM for the first, less than 0.5 µM for the second.

`CCn1c(-c2ccc(N3CCCS3(=O)=O)cc2)c(C#N)c2ccc(OCCn3cccn3)cc21` [Compound 908] and `CCCn1c(-c2ccc(N3CCCS3(=O)=O)cc2)c(C#N)c2ccc(OC(F)(F)F)cc21` [Compound 904] fall in the same range of IC50: 0.5 to 2 µM for the first, 0.5 to 2 µM for the second.

Compared with `CCCn1c(-c2ccc(NS(=O)(=O)CCC)cc2)c(C#N)c2ccc(OCc3ccccc3)cc21` [Compound 923], `CCn1c(-c2ccc(NC(=O)OCc3ccccc3)cc2)c(C#N)c2ccc(OCCF)cc21` [Compound 948] is lower in IC50: 0.5 to 2 µM for the first, less than 0.5 µM for the second. The second is the more potent here.

`CCCNC(=O)Nc1ccc(-c2c(C#N)c3ccc(OC(F)F)cc3n2CC)cc1` [Compound 1136] and `C=CCNC(=O)Nc1ccc(-c2c(C#N)c3ccc(OC(F)F)cc3n2CC)cc1` [Compound 1139] fall in the same range of IC50: 0.5 to 2 µM for the first, 0.5 to 2 µM for the second.

Compared with `CCCS(=O)(=O)Nc1ccc(-c2c(C#N)c3cc(OC)ccc3n2C2CCC2)cc1` [Compound 1181], `CCCS(=O)(=O)Nc1ccc(-c2c(C#N)c3ccc(OCCF)cc3n2C2CCC2)cc1` [Compound 1175] is lower in IC50: 0.5 to 2 µM for the first, less than 0.5 µM for the second.

`CC(OC(=O)Nc1ccc(-c2c(C#N)c3ccc(OC(F)F)cc3n2CC2CC2)cc1)C1CC1` (centres unmarked) [Compound 1267] and `COc1ccc2c(C#N)c(-c3ccc(NC(=O)NC(C)C)cc3)n(CC3CC3)c2c1` [Compound 987] fall in the same range of IC50: 0.5 to 2 µM for the first, 0.5 to 2 µM for the second.

`COC(=O)c1ccc2c(C#N)c(-c3ccc(NC(=O)NC(C)C)cc3)n(C3CCC3)c2c1` [Compound 1301] and `CC(C)NC(=O)Nc1ccc(-c2c(C#N)c3ccc(OCCNC4CC4)cc3n2C2CCC2)cc1` [Compound 1317] cannot be ordered by IC50: less than 0.5 µM for the first, less than 0.5 µM for the second.

`CCn1c(-c2ccc(N3CCOC3=O)cc2)c(C#N)c2ccc(OCCCn3cncn3)cc21` [Compound 1084] and `CCn1c(-c2ccc(NC(=O)NC)cc2)c(C#N)c2ccc(OCCCN3CCOCC3)cc21` [Compound 1118] fall in the same range of IC50: 0.5 to 2 µM for the first, 0.5 to 2 µM for the second.

`CCOP(=O)(Nc1ccc(-c2c(C#N)c3ccc(OC)cc3n2C2CCC2)cc1)OCC` [Compound 1081] and `CCCCOC(=O)Nc1ccc(-c2c(C#N)c3ccc(OC)cc3n2C2CCC2)cc1` [Compound 1075] fall in the same range of IC50: 0.5 to 2 µM for the first, 0.5 to 2 µM for the second.

`CCOC(=O)Nc1ccc(-c2c(C#N)c3ccc(OC)cc3n2CC)cc1C` [Compound 964] and `CCn1c(-c2ccc(NC(=O)OC)c(F)c2)c(C#N)c2ccc(OC)cc21` [Compound 875] fall in the same range of IC50: 0.5 to 2 µM for the first, 0.5 to 2 µM for the second.

`CCOc1ccc2c(C#N)c(-c3ccc(NC(=O)OC4CCC4)cc3)n(C3CCC3)c2c1` [Compound 1167] and `CCOc1ccc2c(c1)c(C#N)c(-c1ccc(NC(=O)OCC3CC3)cc1)n2C1CCC1` [Compound 1291] cannot be ordered by IC50: less than 0.5 µM for the first, less than 0.5 µM for the second.

`CCn1c(-c2ccc(NC(=O)OC(C)C)c(F)c2)c(C#N)c2ccc(OC)cc21` [Compound 878] and `CCn1c(-c2ccc(N)c(F)c2)c(C#N)c2ccc(OC)cc21` [Compound 880] fall in the same range of IC50: 0.5 to 2 µM for the first, 0.5 to 2 µM for the second.

`C=CCOC(=O)Nc1ccc(-c2c(C#N)c3cc(OC)c(OC)cc3n2CC)cc1` [Compound 1111] and `CCNC(=O)Nc1ccc(-c2c(C#N)c3ccc(OCCF)cc3n2CC)cc1` [Compound 954] fall in the same range of IC50: 0.5 to 2 µM for the first, 0.5 to 2 µM for the second.

Compared with `CCn1c(-c2ccc(NC(=O)N3CCOCC3)cc2)c(C#N)c2ccc(OC)cc21` [Compound 1087], `CCCCNC(=O)Nc1ccc(-c2c(C#N)c3ccc(OCCF)cc3n2CC)cc1` [Compound 957] is lower in IC50: 0.5 to 2 µM for the first, less than 0.5 µM for the second.

`N#Cc1c(-c2ccc(NC(=O)NC3CCC3)cc2)n(C2CCC2)c2cc(OCCCCN3CCCC3)ccc12` [Compound 1259] and `CC(C)OC(=O)Nc1ccc(-c2c(C#N)c3ccc(OCCNC4CC4)cc3n2C2CCC2)cc1` [Compound 1279] cannot be ordered by IC50: less than 0.5 µM for the first, less than 0.5 µM for the second.

First: COc1ccc2c(C#N)c(-c3ccc(NS(=O)(=O)C(C)C)cc3)n(CC3CCCC3)c2c1 [Compound 891]
Second: CCOc1ccc2c(C#N)c(-c3ccc(NC(=O)OC(C)C(C)C)cc3)n(C3CCC3)c2c1 (centres unmarked) [Compound 1290]
The IC50 of the first is higher: 0.5 to 2 µM for the first, less than 0.5 µM for the second.

`CCOc1ccc2c(C#N)c(-c3ccc(NC(=O)OCc4ccccc4)cc3)n(CC3CC3)c2c1` [Compound 1155] and `CCNC(=O)Nc1ccc(-c2c(C#N)c3ccc(OCC)cc3n2CC(C)C)cc1` [Compound 1060] fall in the same range of IC50: 0.5 to 2 µM for the first, 0.5 to 2 µM for the second.

`CCn1c(-c2cccc(NC(=O)Oc3ccc(OC)cc3)c2)c(C#N)c2ccc(OCCCCl)cc21` [Compound 1028] and `CCn1c(-c2ccc(NS(=O)(=O)CCCCl)cc2)c(C#N)c2ccc(OC(F)F)cc21` [Compound 930] cannot be ordered by IC50: less than 0.5 µM for the first, less than 0.5 µM for the second.

Molecule `COCCN(C)CCOc1ccc2c(C#N)c(-c3ccc(NC(=O)NC(C)C)cc3)n(C3CCC3)c2c1` [Compound 1321] has an IC50 of 0.5 to 2 µM.

In the case of `CCCCNC(=O)Nc1ccc(-c2c(C#N)c3cc(OC)ccc3n2C2CCC2)cc1` [Compound 1164], the IC50 is reported as < 0.5 µM and > 2 µM.
In the case of `CCCCOC(=O)Nc1ccc(-c2c(C#N)c3cc(OCC)ccc3n2C2CCC2)cc1` [Compound 1197], the IC50 is reported as 0.5 to 2 µM and < 0.5 µM.
For `CCCCn1c(-c2cccc(NC(=O)OCCC)c2)c(C#N)c2ccc(OCC)cc21` [Compound 1022], the IC50 was < 0.5 µM and > 2 µM.
